# Assay results taken from patent US5177082A, “Huperzines and analogs” (priority 1990, dated 1993).
# Entries after “also recorded” stand apart in the source; their conditions may differ.
# How the values were obtained:
# [1] = test system: dogs; assay: Subacute toxicity in dogs; format: in vivo, dog
# Text: Rabbits and dogs: there were 20 rabbits divided into four groups. […] The control group was given im injections of distilled water. […] When the time arrived, the rabbits and dogs were dissected. The routine blood tests glutamic-pyruvic transaminase, zinc turbidity, urea nitrogen and creatinine were all normal. […] The stimulation of the latter was even more outstanding.
# [2] = test system: patients; assay: Clinical side effects in patients with myasthenia gravis; format: in vivo, human
# Description: Patients affected with myasthenia gravis (MG) with typical clinical symptoms which improved after using neostigmine were the subjects for testing and verification. […] It was generally used for at least ten days and each dosage was 0.4-0.5 mg. […] The injections were all given in the morning and on the morning prior to the injections anticholinesterase drugs were discontinued. Neither the patients nor the doctors knew which drug was being injected. Later, the symptoms, the duration of the improvements, if any, which were obtained by the drugs and the side effects were recorded. Based on these factors, the relative merits of the two drugs were established.
# [3] = test system: Mice; details: mouse, in vivo
structure (smiles),measurement,setting,value
"C/C=C1\[C@H]2C=C(C)C[C@]1(N)c1ccc(=O)[nH]c1C2 [Huperzine A, (5R, 9R, 11E)-5-amino-11-ethylidene-5,6,9,10-tetrahydro-7-methyl-5,9-methanocycloocta[b]pyridin-2(1H)-one]","microscopic examination, heart",[1]; dogs,light fat infiltration
same,"routine blood tests, glutamic-pyruvic transaminase, zinc turbidity, urea nitrogen and creatinine",[1]; dogs,all normal
same,symptoms,"[1]; dogs, 0.6 mg/kg im, 180 days",noticeable whole body muscle fiber twitching
same,ECG,"[1]; dogs, im 180 days",no drug induced abnormalities
same,pathological changes of internal organs,"[1]; dogs, six months, 90 times (MG) / 750 times (senile dementia) clinical dosage",no noticeable pathological changes of internal organs were observed
same,abnormalities,"[1]; dogs, small dosages (0.3 mg/kg im), 180 days",No abnormalities were observed
same,"microscopic examination, cerebral cortex",[1]; each dosage group of dogs,cerebral spongiocyte growth and myophagia
same,nausea vs neostigmine,"[2]; X^2 =15, P<0.001",more apt to cause nausea than was neostigmine
same,"Abdominal pains, %",[2]; control group,5.9%
same,"Abdominal pains, number of times",[2]; control group,21
same,"Blurred vision, %",[2]; control group,3.2%
same,"Blurred vision, number of times",[2]; control group,11
same,"Changes in the rhythm of the heart, %",[2]; control group,3.1%
same,"Changes in the rhythm of the heart, number of times",[2]; control group,11
same,"Disturbed sleep, %",[2]; control group,0.8%
same,"Disturbed sleep, number of times",[2]; control group,3
same,"Dizziness, %",[2]; control group,20.3%
same,"Dizziness, number of times",[2]; control group,72
same,"Drooling, %",[2]; control group,3.5%
same,"Drooling, number of times",[2]; control group,9
same,"Increase in the number of bowel movements, %",[2]; control group,2.8%
same,"Increase in the number of bowel movements, number of times",[2]; control group,10
same,"Muscle bundle quivering, %",[2]; control group,10.4%
same,"Muscle bundle quivering, number of times",[2]; control group,37
same,"Myosis, %",[2]; control group,3.0%
same,"Myosis, number of times",[2]; control group,13
same,"Nausea, %",[2]; control group,12.9%
same,"Nausea, number of times",[2]; control group,46
same,"Perspiring, %",[2]; control group,7.0%
same,"Perspiring, number of times",[2]; control group,25
same,"Tinnitus, %",[2]; control group,3.7%
same,"Tinnitus, number of times",[2]; control group,13
same,"Vomiting, %",[2]; control group,2.8%
same,"Vomiting, number of times",[2]; control group,10
same,cases with side effects,"[2]; control patients, 69 cases",45 cases
same,"cases with side effects, %","[2]; control patients, 69 cases, X^2 =3.58, P>0.05",65.21%
same,side effects other than nausea vs neostigmine,"[2]; muscle bundle quivering, dizziness, perspiring, blurred vision",lower side effects for each of the other items than neostigmine; also recorded: statistically lower than neostigmine; also recorded: lower side effects in all other areas than neostigmine
same,"Abdominal pains, %","[2]; noncontrol group, 128 cases",6.5%
same,"Abdominal pains, number of times","[2]; noncontrol group, 128 cases",80
same,"Blurred vision, %","[2]; noncontrol group, 128 cases",1.8%
same,"Blurred vision, number of times","[2]; noncontrol group, 128 cases",22
same,"Changes in the rhythm of the heart, %","[2]; noncontrol group, 128 cases",1.0%
same,"Changes in the rhythm of the heart, number of times","[2]; noncontrol group, 128 cases",13
same,"Disturbed sleep, %","[2]; noncontrol group, 128 cases",0.4%
same,"Disturbed sleep, number of times","[2]; noncontrol group, 128 cases",5
same,"Dizziness, %","[2]; noncontrol group, 128 cases",8.1%
same,"Dizziness, number of times","[2]; noncontrol group, 128 cases",100
same,"Drooling, %","[2]; noncontrol group, 128 cases",2.0%
same,"Drooling, number of times","[2]; noncontrol group, 128 cases",25
same,"Increase in the number of bowel movements, %","[2]; noncontrol group, 128 cases",0.5%
same,"Increase in the number of bowel movements, number of times","[2]; noncontrol group, 128 cases",11
same,"Muscle bundle quivering, %","[2]; noncontrol group, 128 cases",4.0%
same,"Myosis, %","[2]; noncontrol group, 128 cases",1.0%
same,"Myosis, number of times","[2]; noncontrol group, 128 cases",13
same,"Nausea, %","[2]; noncontrol group, 128 cases",7.8%
same,"Nausea, number of times","[2]; noncontrol group, 128 cases",95
same,"Perspiring, %","[2]; noncontrol group, 128 cases",4.8%
same,"Perspiring, number of times","[2]; noncontrol group, 128 cases",59
same,"Tinnitus, %","[2]; noncontrol group, 128 cases",3.1%
same,"Tinnitus, number of times","[2]; noncontrol group, 128 cases",38
same,"Vomiting, %","[2]; noncontrol group, 128 cases",1.2%
same,"Vomiting, number of times","[2]; noncontrol group, 128 cases",15
same,Toxic Strength,[3],1.00
same,symptoms after single toxic dose,[3],"typical symptoms of cholinesterase inhibitor poisoning, such as whole body muscle fiber twitching, drooling, tears, increase bronchial secretions and incontinence of feces and urine"
